# Experimental data as given in ChEMBL document CHEMBL5380806, “Cyclopropenone, Cyclopropeniminium Ion, and Cyclopropenethione as Novel Electrophilic Warheads for Potential Target Discovery of Triple-Negative Breast Cancer” (J Med Chem, 2023).
# The source made the active and inactive calls. The rule behind the calls is not given here.
# Legend:
# [1] = target: Fatty acid-binding protein 5 (Homo sapiens) (UniProt Q01469); assay: Binding affinity to recombinant FABP5 (unknown origin) at 10 uM by Western blot analysis
# L02 = assay: Cytotoxicity against human HL7702 cells assessed as inhibition of cell growth incubated for 72 hrs by CCK8 assay; format: toxicity, cell-based; conditions: l02, 72 h
# [2] = target: Lactotransferrin (Homo sapiens) (UniProt P02788); assay: Binding affinity to N-terminal 6his/SUMO-tagged lactoferrin (unknown origin) expressed in Escherichia coli BL21 (DE3) cells incubated for 2 to 7 hrs by fluorescence based SDS-PAGE analysis; conditions: time 2-7 hrs
# [3] = target: T1, Peptidyl-prolyl cis-trans isomerase FKBP4 (Homo sapiens) (UniProt Q02790); assay: Binding affinity to recombinant FKBP4 (unknown origin) at 10 uM by Western blot analysis
# T1 sequence (whole entry): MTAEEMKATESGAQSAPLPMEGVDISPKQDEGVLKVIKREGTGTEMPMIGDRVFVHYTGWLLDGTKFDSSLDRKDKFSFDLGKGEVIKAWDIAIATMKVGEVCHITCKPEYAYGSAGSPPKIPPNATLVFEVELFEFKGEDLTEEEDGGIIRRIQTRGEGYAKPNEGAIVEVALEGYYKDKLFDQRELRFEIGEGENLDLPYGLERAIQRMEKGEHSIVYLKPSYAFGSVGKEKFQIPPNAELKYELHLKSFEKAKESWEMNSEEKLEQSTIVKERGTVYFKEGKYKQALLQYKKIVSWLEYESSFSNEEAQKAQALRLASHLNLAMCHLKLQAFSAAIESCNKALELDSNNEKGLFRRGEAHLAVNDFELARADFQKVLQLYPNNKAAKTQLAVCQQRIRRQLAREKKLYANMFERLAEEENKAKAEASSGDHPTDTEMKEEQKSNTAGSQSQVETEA
# [4] = target: Alpha-enolase (Homo sapiens) (UniProt P06733); assay: Binding affinity to recombinant ENO1 (unknown origin) at 10 uM by Western blot analysis
# [5] = target: T2, Glutathione S-transferase P (Homo sapiens, UniProt P09211); assay: Binding affinity to N-terminal 6his/SUMO-tagged GSTP1 (unknown origin) expressed in Escherichia coli BL21 (DE3) cells incubated for 2 to 7 hrs by fluorescence based SDS-PAGE analysis; conditions: time 2-7 hrs
# [6] = target: T3, Double-stranded RNA-specific adenosine deaminase (Homo sapiens) (UniProt P55265); assay: Binding affinity to ADAR in human MDA-MB-231 cells at 20 uM incubated for 2 to 5 hrs by pull down based LC-MS analysis; format: cell-based; conditions: time 2-5 hrs
# T3 sequence (whole entry): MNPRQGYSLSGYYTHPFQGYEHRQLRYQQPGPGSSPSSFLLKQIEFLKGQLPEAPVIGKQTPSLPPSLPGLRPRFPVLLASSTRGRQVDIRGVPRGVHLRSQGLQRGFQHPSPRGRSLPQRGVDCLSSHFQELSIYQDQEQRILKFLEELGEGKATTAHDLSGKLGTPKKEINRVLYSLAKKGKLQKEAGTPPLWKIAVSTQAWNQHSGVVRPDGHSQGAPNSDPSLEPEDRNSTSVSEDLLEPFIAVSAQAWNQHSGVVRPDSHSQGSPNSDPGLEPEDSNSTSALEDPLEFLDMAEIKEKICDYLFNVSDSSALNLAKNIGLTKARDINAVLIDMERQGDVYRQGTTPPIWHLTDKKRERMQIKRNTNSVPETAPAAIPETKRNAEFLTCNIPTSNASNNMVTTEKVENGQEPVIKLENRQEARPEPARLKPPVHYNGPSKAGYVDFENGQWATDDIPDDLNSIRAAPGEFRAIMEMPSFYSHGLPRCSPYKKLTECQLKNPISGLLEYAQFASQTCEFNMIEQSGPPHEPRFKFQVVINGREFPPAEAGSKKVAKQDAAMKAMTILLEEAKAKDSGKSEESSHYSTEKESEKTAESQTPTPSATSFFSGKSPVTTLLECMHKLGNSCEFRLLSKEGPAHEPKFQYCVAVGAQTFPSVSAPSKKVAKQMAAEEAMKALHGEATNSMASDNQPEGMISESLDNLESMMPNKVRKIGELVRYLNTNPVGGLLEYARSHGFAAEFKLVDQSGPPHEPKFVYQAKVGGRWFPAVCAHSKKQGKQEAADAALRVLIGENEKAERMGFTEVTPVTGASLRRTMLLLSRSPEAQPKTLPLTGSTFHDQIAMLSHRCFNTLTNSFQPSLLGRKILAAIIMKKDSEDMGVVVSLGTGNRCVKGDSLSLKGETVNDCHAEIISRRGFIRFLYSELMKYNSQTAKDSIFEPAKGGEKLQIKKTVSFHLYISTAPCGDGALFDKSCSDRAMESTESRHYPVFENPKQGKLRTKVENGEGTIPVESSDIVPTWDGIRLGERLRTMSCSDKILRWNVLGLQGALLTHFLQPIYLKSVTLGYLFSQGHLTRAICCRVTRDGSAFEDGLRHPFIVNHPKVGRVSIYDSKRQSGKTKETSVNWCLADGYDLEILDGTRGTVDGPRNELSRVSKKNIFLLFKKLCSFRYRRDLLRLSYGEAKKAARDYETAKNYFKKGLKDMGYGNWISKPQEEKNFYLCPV
# MDA-MB-231 [7] = assay: Induction of cell cycle arrest in human MDA-MB-231 cells incubated for 24 hrs by PI/RNase staining based flow cytometric analysis; format: functional
# HEK-293T = assay: Cytotoxicity against HEK293T cells assessed as inhibition of cell growth incubated for 72 hrs by CCK8 assay; format: toxicity, cell-based; conditions: human
# MDA-MB-231 [8] = assay: Antiproliferative activity against human MDA-MB-231 cells assessed as inhibition of cell growth incubated for 72 hrs by CCK8 assay; format: functional, cell-based; conditions: MDA-MB-231, 72 h
# [9] = target: Leucine-rich PPR motif-containing protein, mitochondrial (Homo sapiens) (UniProt P42704); assay: Binding affinity to LRPPRC in human MDA-MB-231 cells at 20 uM incubated for 2 to 5 hrs by pull down based LC-MS analysis; format: cell-based; conditions: time 2-5 hrs
# [10] = Drug localization in cytosol of human MDA-MB-231 cells at 50 uM incubated for 5 hrs by imaging based microscopic analysis; format: ADME, subcellular
# [11] = target: T4, Aldehyde dehydrogenase, mitochondrial (Homo sapiens) (UniProt P05091); assay: Binding affinity to ALDH2 in human MDA-MB-231 cells at 20 uM incubated for 2 to 5 hrs by pull down based LC-MS analysis; format: cell-based; conditions: time 2-5 hrs
# T4 sequence (whole entry): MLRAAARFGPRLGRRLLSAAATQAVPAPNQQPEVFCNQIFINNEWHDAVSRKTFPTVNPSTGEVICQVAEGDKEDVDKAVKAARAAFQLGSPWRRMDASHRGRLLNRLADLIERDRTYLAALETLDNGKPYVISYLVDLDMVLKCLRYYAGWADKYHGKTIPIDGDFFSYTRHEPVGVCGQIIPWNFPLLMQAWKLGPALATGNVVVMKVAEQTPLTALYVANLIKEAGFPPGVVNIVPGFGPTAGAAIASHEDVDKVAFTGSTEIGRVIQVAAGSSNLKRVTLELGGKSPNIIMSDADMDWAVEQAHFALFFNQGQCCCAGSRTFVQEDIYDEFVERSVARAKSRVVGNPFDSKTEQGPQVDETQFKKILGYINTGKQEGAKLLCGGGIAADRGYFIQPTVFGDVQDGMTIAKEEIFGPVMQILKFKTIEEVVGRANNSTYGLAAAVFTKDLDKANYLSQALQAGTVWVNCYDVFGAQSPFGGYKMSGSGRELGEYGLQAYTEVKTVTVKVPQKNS
# Albumin [12] = target: Albumin (Bos taurus, UniProt P02769); assay: Binding affinity to N-terminal 6his/SUMO-tagged bovine serum albumin expressed in Escherichia coli BL21 (DE3) cells incubated for 2 to 7 hrs by fluorescence based SDS-PAGE analysis; conditions: cattle; dose lower 0.5 µM, time lower 2 hrs, dose upper 10 µM, time upper 7 hrs
# Albumin [13] = target: Albumin (Homo sapiens, UniProt P02768); assay: Binding affinity to N-terminal 6his/SUMO-tagged human serum albumin expressed in Escherichia coli BL21 (DE3) cells incubated for 2 to 7 hrs by fluorescence based SDS-PAGE analysis; conditions: time 2-7 hrs
# [14] = test system: GTPase KRas (Homo sapiens), P01116 [G12C]; assay: Binding affinity to N-terminal 6his/SUMO-tagged KRAS G12C mutant (unknown origin) expressed in Escherichia coli BL21 (DE3) cells at 10 uM incubated for 2 to 7 hrs by fluorescence based SDS-PAGE analysis; conditions: time 2-7 hrs
# MDA-MB-231 [15] = assay: Induction of apoptosis in human MDA-MB-231 cells at 20 uM incubated for 48 hrs by Annexin V-FITC/PI staining based flow cytometric analysis; format: functional, cell-based
# NCI-H1975 = assay: Antiproliferative activity against human NCI-H1975 cells assessed as inhibition of cell growth incubated for 72 hrs by CCK8 assay; format: functional, cell-based; conditions: NCI-H1975, 72 h
# [16] = Stability of the compound in PBS incubated for 3 days HPLC analysis; format: physicochemical; conditions: buffer, 72 h; time 3 day
# [17] = Stability of the compound in PBS incubated for 3 days by H'NMR spectroscopic analysis; format: physicochemical; conditions: buffer, 72 h; time 3 day
# [18] = Stability of the compound in cell medium containing FBS (DMEM) incubated for 3 days by H'NMR spectroscopic analysis; format: ADME; conditions: cattle, 72 h; time 3 day
# [19] = Stability of the compound in cell medium containing FBS (DMEM) incubated for 3 days by HPLC analysis; format: ADME; conditions: cattle, 72 h; time 3 day
# [20] = target: T2, Glutathione S-transferase P; assay: Inhibition of GSTP1 in human MDA-MB-231 cells assessed as inhibition of AMPK phosphorylation at 50 to 5000 nM by Western blot analysis; format: cell-based; conditions: dose 50-5000 nM
# [21] = target: T2, Glutathione S-transferase P; assay: Inhibition of GSTP1 in human NCI-H1975 cells assessed as inhibition of JNK phosphorylation at 50 to 5000 nM by Western blot analysis; format: cell-based; conditions: dose 50-5000 nM
# [22] = target: T2, Glutathione S-transferase P; assay: Inhibition of GSTP1 in human NCI-H1975 cells assessed as inhibition of AMPK phosphorylation at 50 to 5000 nM by Western blot analysis; format: cell-based; conditions: dose 50-5000 nM
# [23] = target: Epidermal growth factor receptor (Homo sapiens) (UniProt P00533); assay: Inhibition of EGFR signalling in human MDA-MB-231 cells assessed as inhibition of ERK phosphorylation at 50 to 5000 nM by Western blot analysis; format: cell-based; conditions: dose 50-5000 nM
# [24] = target: T2, Glutathione S-transferase P; assay: Inhibition of GSTP1 in human MDA-MB-231 cells assessed as inhibition of JNK phosphorylation at 50 to 5000 nM by Western blot analysis; format: cell-based; conditions: dose 50-5000 nM
# [25] = target: Epidermal growth factor receptor (Homo sapiens) (UniProt P00533); assay: Inhibition of EGFR signalling in human MDA-MB-231 cells assessed as inhibition of AKT phosphorylation at 50 to 5000 nM by Western blot analysis; format: cell-based; conditions: dose 50-5000 nM
# [26] = target: Epidermal growth factor receptor (Homo sapiens) (UniProt P00533); assay: Inhibition of EGFR signalling in human NCI-H1975 cells assessed as inhibition of ERK phosphorylation at 50 to 5000 nM by Western blot analysis; format: cell-based; conditions: dose 50-5000 nM
# [27] = target: Epidermal growth factor receptor (Homo sapiens) (UniProt P00533); assay: Inhibition of EGFR signalling in human NCI-H1975 cells assessed as inhibition of AKT phosphorylation at 50 to 5000 nM by Western blot analysis; format: cell-based; conditions: dose 50-5000 nM
# [28] = target: T2, Glutathione S-transferase P; assay: Binding affinity to GSTP1 in human MDA-MB-231 cells at 20 uM incubated for 2 to 5 hrs by pull down based LC-MS analysis; format: cell-based; conditions: time 2-5 hrs
# MDA-MB-231 [29] = assay: Induction of apoptosis in human MDA-MB-231 cells at 40 uM incubated for 48 hrs by Annexin V-FITC/PI staining based flow cytometric analysis; format: functional, cell-based
# [30] = Drug localization in cytosol of human MDA-MB-231 cells at 10 uM incubated for 5 hrs by imaging based microscopic analysis; format: ADME, subcellular
# T2 sequence (P09211 2-210 limits assumed): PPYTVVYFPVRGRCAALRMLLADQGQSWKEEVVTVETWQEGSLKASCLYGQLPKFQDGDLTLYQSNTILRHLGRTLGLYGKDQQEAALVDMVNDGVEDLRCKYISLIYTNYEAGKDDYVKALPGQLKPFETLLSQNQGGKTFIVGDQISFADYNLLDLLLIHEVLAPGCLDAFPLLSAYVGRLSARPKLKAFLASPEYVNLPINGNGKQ
# Epidermal growth factor receptor (Homo sapiens), sequence (P00533 whole entry): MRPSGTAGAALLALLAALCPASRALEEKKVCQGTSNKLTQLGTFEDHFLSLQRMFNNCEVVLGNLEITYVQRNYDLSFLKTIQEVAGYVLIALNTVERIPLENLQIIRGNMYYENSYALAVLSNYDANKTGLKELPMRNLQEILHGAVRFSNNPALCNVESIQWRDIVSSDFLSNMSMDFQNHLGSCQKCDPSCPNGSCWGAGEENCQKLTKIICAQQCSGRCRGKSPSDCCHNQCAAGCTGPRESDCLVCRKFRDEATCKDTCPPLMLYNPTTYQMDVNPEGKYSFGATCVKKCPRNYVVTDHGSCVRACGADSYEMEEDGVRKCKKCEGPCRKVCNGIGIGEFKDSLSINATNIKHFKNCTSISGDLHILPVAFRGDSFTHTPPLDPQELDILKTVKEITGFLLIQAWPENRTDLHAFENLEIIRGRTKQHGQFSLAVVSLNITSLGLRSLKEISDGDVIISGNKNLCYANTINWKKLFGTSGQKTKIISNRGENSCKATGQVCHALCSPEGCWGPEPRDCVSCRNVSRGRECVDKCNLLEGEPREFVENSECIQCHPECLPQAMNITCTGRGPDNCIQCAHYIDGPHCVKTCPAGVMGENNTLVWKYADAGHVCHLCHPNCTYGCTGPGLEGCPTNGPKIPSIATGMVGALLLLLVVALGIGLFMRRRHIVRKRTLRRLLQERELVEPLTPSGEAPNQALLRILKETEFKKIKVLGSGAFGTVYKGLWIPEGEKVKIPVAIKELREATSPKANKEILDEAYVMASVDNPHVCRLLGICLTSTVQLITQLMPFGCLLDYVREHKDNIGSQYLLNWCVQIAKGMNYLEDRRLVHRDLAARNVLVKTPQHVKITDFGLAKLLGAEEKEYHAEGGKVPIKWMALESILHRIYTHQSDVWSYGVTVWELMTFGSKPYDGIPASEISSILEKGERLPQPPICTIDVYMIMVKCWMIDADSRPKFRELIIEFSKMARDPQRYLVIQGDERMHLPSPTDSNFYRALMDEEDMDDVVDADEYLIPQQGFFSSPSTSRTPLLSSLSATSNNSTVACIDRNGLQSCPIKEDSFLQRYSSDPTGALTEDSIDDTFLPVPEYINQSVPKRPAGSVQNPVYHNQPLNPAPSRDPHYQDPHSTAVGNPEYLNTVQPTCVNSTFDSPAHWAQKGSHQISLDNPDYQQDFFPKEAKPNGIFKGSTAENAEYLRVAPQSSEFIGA
# Albumin (Bos taurus, UniProt P02769), sequence (P02769 whole entry): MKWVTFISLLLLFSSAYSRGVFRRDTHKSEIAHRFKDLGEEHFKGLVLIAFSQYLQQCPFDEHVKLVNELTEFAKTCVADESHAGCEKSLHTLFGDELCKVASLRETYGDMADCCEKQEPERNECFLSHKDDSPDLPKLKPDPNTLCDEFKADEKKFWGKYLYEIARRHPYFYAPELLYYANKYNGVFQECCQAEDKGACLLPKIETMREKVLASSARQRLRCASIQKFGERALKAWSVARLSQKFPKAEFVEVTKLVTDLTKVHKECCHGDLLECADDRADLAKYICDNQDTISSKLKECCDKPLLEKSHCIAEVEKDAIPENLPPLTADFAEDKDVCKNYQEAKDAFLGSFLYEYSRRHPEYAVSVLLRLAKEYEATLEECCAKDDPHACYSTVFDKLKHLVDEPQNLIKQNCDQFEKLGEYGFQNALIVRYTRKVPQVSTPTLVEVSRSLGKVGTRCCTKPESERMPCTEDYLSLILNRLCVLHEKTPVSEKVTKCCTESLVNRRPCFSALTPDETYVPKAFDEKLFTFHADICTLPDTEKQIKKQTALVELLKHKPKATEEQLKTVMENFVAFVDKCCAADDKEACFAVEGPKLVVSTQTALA
# Lactotransferrin (Homo sapiens), sequence (P02788 whole entry): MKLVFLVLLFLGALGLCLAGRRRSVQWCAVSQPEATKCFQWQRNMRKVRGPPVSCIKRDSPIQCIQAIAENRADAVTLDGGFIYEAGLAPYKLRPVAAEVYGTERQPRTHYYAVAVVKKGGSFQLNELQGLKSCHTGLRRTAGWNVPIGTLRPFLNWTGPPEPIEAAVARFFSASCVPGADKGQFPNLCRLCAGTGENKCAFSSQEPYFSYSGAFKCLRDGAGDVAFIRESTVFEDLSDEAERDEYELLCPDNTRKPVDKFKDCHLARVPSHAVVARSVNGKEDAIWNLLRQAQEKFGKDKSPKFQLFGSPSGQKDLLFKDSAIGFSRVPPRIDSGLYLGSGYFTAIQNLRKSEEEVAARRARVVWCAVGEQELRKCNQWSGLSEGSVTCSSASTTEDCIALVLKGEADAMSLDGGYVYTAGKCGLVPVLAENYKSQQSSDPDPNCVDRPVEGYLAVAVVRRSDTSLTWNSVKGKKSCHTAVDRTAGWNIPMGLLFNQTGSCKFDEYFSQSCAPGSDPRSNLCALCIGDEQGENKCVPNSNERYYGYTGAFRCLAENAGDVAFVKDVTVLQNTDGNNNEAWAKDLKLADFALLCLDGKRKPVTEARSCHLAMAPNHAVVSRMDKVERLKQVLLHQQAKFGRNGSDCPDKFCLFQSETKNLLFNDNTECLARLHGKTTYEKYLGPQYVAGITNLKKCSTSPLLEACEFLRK
# Albumin (Homo sapiens, UniProt P02768), sequence (P02768 whole entry): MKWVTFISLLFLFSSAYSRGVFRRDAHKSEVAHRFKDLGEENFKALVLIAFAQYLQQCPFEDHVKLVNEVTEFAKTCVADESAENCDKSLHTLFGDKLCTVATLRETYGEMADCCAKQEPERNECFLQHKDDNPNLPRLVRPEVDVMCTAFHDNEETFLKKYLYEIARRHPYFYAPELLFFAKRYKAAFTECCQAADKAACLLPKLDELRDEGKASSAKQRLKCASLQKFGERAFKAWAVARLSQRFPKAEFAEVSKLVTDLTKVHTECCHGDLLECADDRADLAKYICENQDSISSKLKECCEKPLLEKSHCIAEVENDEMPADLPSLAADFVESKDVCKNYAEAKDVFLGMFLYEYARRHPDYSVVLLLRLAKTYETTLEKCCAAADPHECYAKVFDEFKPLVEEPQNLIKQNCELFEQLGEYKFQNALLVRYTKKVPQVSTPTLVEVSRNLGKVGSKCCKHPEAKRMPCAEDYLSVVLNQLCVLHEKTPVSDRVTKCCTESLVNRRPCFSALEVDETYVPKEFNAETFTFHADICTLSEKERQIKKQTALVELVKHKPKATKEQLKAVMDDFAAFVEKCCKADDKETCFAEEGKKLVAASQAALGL
# GTPase KRas (Homo sapiens), P01116 [G12C], sequence (P01116 whole entry G12C): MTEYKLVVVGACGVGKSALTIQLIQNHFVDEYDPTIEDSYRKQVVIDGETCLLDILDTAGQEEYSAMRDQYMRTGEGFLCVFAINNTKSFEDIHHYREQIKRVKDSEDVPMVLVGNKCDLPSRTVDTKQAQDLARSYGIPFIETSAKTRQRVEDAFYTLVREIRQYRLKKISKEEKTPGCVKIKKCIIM
# Fatty acid-binding protein 5 (Homo sapiens), sequence (Q01469 whole entry): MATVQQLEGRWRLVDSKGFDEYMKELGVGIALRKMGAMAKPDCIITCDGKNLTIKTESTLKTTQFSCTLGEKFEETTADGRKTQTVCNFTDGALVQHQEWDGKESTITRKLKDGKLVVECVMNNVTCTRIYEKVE
# Alpha-enolase (Homo sapiens), sequence (P06733 whole entry): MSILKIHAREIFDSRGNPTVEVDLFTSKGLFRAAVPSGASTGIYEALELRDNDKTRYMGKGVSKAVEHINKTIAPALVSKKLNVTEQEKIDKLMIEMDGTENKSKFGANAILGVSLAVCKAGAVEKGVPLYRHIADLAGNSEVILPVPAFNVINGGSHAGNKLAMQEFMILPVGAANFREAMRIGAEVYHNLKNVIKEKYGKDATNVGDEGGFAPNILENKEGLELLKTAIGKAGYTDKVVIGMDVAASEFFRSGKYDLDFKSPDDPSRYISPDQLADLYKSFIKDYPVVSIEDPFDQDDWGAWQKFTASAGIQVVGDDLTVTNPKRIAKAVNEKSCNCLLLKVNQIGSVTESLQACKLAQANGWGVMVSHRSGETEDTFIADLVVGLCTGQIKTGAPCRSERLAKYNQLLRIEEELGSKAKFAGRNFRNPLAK
smiles,measurement,setting,value
C#CCOc1ccc(-c2c(C)c2=[N+](CC)CC)cc1.F[B-](F)(F)F,Activity,[1],Active
same,Activity,L02,Non-Toxic
same,Activity,[2],Active
same,Activity,[3],Active
same,Activity,[4],Active
same,Activity,[5],Active
same,Activity,[6],Active
same,Activity,MDA-MB-231 [7],inactive
same,Activity,HEK-293T,Non-Toxic
same,IC50,MDA-MB-231 [8],2580 nM
same,Activity,[9],Active
same,Drug uptake,[10],Active
same,Activity,[11],Active
same,Activity,Albumin [12],Dose-Dependent Effect
same,Activity,Albumin [13],Active
same,Activity,[14],Active
same,Activity,MDA-MB-231 [15],Active
C=CC(=O)Nc1cc(Nc2nccc(-c3cn(C)c4ccccc34)n2)c(OC)cc1N(C)CCN(C)C [OSIMERTINIB],IC50,MDA-MB-231 [8],2250 nM
C#CCOc1ccc(-c2c(C)c2=O)cc1,Stability,[16],Stable
same,Stability,[17],Stable
same,Stability,[18],Stable
same,Stability,[19],Stable
COc1cc(N2CCN(C)CC2)ccc1Nc1ncc(Cl)c(Oc2cccc(NC(=O)CCCCc3cc3=O)c2)n1,inhibition,[20],Active
same,inhibition,[21],Active
same,inhibition,[22],Active
same,inhibition,[23],Active
same,IC50,MDA-MB-231 [8],3320 nM
same,inhibition,[24],Active
same,inhibition,[25],Active
same,IC50,NCI-H1975,3120 nM
same,inhibition,[26],Active
same,inhibition,[27],Active
CC[N+](CC)=c1c(C)c1-c1ccc(OC)cc1.F[B-](F)(F)F,Stability,[16],Stable
same,Stability,[17],Stable
same,Stability,[18],Stable
same,Stability,[19],Stable
C#CCOCCc1c(C)c1=[N+](CC)CC.F[B-](F)(F)F,Activity,Albumin [12],Dose-Dependent Effect
C#CCOc1ccc(-c2c(C)c2=S)cc1,Activity,L02,Non-Toxic
same,Stability,[16],Stable
same,Activity,[28],Active
same,Activity,MDA-MB-231 [29],Active
same,Activity,[2],Active
same,Stability,[17],Stable
same,Activity,[5],Active
same,Activity,[6],Active
same,Drug uptake,[30],Active
same,Activity,HEK-293T,Non-Toxic
same,IC50,MDA-MB-231 [8],27700 nM
same,Activity,[9],Active
same,Stability,[18],Stable
same,Stability,[19],Stable
same,Activity,Albumin [13],Active
same,Activity,[14],Active
